The text below walks through data of article PMC5515859, “Metabolism of F18, a Derivative of Calanolide A, in Human Liver Microsomes and Cytosol” (Frontiers in Pharmacology, 2017).

SMILES strings stand for the structures.

Series [1] deals with T1, recombinant FMO5 (Homo sapiens, UniProt P49326).
T1 construct: purchased BD Gentest (Woburn, MA, USA)
T1 sequence (P49326 1-533): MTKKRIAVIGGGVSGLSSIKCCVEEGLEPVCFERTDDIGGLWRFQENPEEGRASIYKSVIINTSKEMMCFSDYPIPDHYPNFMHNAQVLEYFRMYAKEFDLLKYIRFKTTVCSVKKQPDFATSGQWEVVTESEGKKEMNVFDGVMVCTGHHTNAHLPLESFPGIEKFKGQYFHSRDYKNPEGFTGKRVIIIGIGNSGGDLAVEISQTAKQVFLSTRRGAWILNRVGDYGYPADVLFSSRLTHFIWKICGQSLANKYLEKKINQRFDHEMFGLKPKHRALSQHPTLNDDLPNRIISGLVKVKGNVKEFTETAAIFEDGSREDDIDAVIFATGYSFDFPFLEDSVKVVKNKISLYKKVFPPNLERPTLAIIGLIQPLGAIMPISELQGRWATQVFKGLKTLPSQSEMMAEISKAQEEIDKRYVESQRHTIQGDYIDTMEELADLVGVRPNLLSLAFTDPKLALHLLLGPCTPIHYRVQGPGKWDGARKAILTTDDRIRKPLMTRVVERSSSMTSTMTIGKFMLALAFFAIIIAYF
The series can be described thus: Metabolism of F18 by cDNA-expressed FMO5. In kind it is in vitro ADME. The following applies: F18 10 μM, 50 pmol/mL enzyme, 1 h. As to the method: (§1) To further verify the roles of CYPs and FMOs in the metabolism of F18 in humans, F18 (10 μM) was incubated individually with 14 cDNA-expressed human CYP isozymes (50-pmol/mL CYP1A1, CYP1A2, CYP2A6, CYP2B6, CYP2C8, CYP2C9, CYP2C19, CYP2D6, CYP2E1, CYP2J2, CYP3A4, CYP4F2, CYP4F3, and CYP4A11) and three cDNA-expressed FMO enzymes (50-pmol/mL FMO1, FMO3, and FMO5). The incubation conditions were similar to those used for HLMs (described above), with the exception of the incubating time […]. Samples incubated without NADPH were used as the negative control.

The target in series [2] is T2, recombinant FMO3 (Homo sapiens, UniProt P31513).
T2 construct: purchased BD Gentest (Woburn, MA, USA)
T2 sequence (P31513 1-532): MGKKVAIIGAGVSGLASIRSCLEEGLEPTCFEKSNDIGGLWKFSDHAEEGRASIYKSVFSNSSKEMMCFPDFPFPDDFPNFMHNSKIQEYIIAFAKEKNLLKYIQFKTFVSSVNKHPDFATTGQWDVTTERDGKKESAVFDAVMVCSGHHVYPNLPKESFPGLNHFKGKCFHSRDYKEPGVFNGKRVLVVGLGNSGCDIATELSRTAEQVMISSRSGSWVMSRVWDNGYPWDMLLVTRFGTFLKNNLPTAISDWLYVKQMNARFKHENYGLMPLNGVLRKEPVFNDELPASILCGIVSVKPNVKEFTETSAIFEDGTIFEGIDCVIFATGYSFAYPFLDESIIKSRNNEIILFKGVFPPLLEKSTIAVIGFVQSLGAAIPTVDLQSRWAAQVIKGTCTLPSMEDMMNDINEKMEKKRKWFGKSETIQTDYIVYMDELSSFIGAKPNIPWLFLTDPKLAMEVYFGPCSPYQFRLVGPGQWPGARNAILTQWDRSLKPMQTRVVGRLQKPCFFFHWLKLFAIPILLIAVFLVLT
The series can be described thus: Metabolism of F18 by cDNA-expressed FMO3. It is filed as in vitro ADME. The following applies: F18 10 μM, 50 pmol/mL enzyme, 1 h. As to the method: as §1

Series [3] has as its system human liver cytosol. The series can be described thus: Incubation of F18 with human liver cytosol, metabolite profiling. It is filed as in vitro ADME. Also on record: key: +: Metabolite detected; −: metabolite not detected. As to conditions: F18 50 μM, 1 h. As to the method:
(§2) A stock solution of F18 (5 mM) was prepared in methanol. F18 (50 μM) was incubated with RLMs/DLMs/MLMs/HLMs and HLcy (0.5 mg protein/mL) in 50 mM Tris-HCl buffer containing 5 mM MgCl2 (pH 7.4) in a final volume of 200 μL. The final concentration of methanol in the incubation system was 1% (v/v). After 3 min of preincubation at 37°C, the reactions were initiated by the addition of NADPH-regenerating system (10-mM β-NADP, 100-mM 6-G-P and 10-U/mL 6-G-P-DH) or NADH. After incubation for 1 h, the reactions were terminated by the addition of two volumes of ice-cold acetonitrile. Samples without NADPH or NADH were included as controls. The incubation mixture was vortexed and centrifuged at 13,300 × g for 5 min. A 10 μL aliquot of the supernatant was injected into an LC-tandem mass spectrometer (LC-MS/MS) for analysis.
(§3) Metabolic profiling studies were performed with a Finnigan TSQ Quantum MS instrument with an electrospray ionization probe and a Finnigan SURVEYOR HPLC system (Thermo Finnigan, San Jose, CA, USA). HPLC was performed with a Zorbax SB-C18 column (2.1 × 100 mm, 3.5 μm, Agilent Corporation, CA, USA) with a column temperature of 35°C and a flow rate of 200 μL/min. F18 and its metabolites were eluted using a linear gradient method with a mobile phase consisting of solvent A (water with 0.1% formic acid) and solvent B (acetonitrile with 0.1% formic acid). […] The samples were analyzed in the positive-ionization mode, and the TSQ capillary temperature was set to 350°C. Nitrogen was used as both the sheath gas and the auxiliary gas and was delivered at 30 psi and 15 psi, respectively. The spray voltage and tube lens were set to 3,800 V and 123 V, respectively. The full-width half maximum (FWHM) was set to 0.7. MS data were acquired in the selective ion-recording mode or by collecting full scans from 200 to 600 m/z at 1 scan/s. The mass spectrometer and HPLC system were operated using Xcalibur 2.0.7 software.

Series [4] has as its system monkey liver microsomes. The series can be described thus: Incubation of F18 with monkey liver microsomes, metabolite profiling. In kind it is in vitro ADME. Also noted: key: +: Metabolite detected; −: metabolite not detected. The following applies: F18 50 μM, 1 h. As for the experimental part:
as §2, §3
In general terms: Liver microsomes are vesicles of endoplasmic reticulum, rich in cytochrome P450 enzymes.

The subject of series [5] is dog liver microsomes. The series can be described thus: Incubation of F18 with dog liver microsomes, metabolite profiling. In kind it is in vitro ADME, beagle dog. Also noted: key: +: Metabolite detected; −: metabolite not detected. As to conditions: F18 50 μM, 1 h. As to the method: as §2, §3

As for `CCCc1cc(=O)oc2c3c(c4c(c12)OC(C)(C)C=C4)O[C@H](CCl)C[C@H]3O` (relative stereo) [Metabolite M3-1, trans-12-hydroxy F18], the “Metabolite detected in incubation with recombinant FMO5” value in series [1] is “detected”. Besides, the “Metabolite detected in incubation with recombinant FMO3” value in series [2] is on record as “detected”. Further, in series [3], the “F18 metabolite detected in HLcy with NADH” value was “+” and the “F18 metabolite detected in HLcy with NADPH” value is recorded as “+”. For the same molecule, the “F18 metabolite detected in MLM” value in series [4] is given as “+”. Further, the “F18 metabolite detected in DLM” value in series [5] is reported as “+”.

`CCCc1cc(=O)oc2c3c(c4c(c12)OC(C)(C)C=C4)O[C@H](CCl)C[C@@H]3O` (relative stereo) [Metabolite M3-2, cis-12-hydroxy F18]: in series [1], the “Metabolite detected in incubation with recombinant FMO5” value is “detected”. For the same molecule, the “Metabolite detected in incubation with recombinant FMO3” value in series [2] is recorded as “detected”. In addition, in series [3], the “F18 metabolite detected in HLcy with NADH” value is listed as “+” and the “F18 metabolite detected in HLcy with NADPH” value is listed as “+”. For the same molecule, in series [4], the “F18 metabolite detected in MLM” value is reported as “+”. The “F18 metabolite detected in DLM” value in series [5] was “+”.

In the case of `CCCc1cc(=O)oc2c3c(c4c(c12)OC(C)(C)C=C4)OC(CO)CC3=O` (stereo not drawn) [Metabolite M1], in series [1], the “Metabolite detected in incubation with recombinant FMO5” value is on record as “not detected”. Besides, the “Metabolite detected in incubation with recombinant FMO3” value in series [2] is given as “not detected”. Also, in series [3], the “F18 metabolite detected in HLcy with NADH” value is given as “−” and the “F18 metabolite detected in HLcy with NADPH” value is recorded as “−”. Further, the “F18 metabolite detected in MLM” value in series [4] is “+”. The “F18 metabolite detected in DLM” value in series [5] was “+”.
